Measurements taken from PubChem BioAssay AID248 (DTP/NCI, 2004).
Several values for one entry are separate records, joined by “and”; a condition that tells them apart may be missing. Equal values may be shown once. Inconclusive results and toxic doses are left out. Rule as the data show it: active = T/C of 150% or more; inactive = T/C below 125%.

Test system: L1210 leukemia ip in BDF1 mice, survival T/C
Assay: NCI In Vivo Anticancer Drug Screen. Data for tumor model L1210 Leukemia (intraperitoneal) in B6D2F1 (BDF1) mice
Settings: endpoint: mean survival time, higher = longer survival
Method in brief: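 Tumor cells were implanted, animals were treated, and survival was followed. The result divides the treated measurement by the vehicle-control measurement.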

Measured: T/C

NC(C/[N+]([O-])=N/O)C(=O)O (configuration not stated)
active: dose: 187.0 mg/kg/injection, schedule: Q04DX003 (ip), vehicle: saline with Tween-80 156 % of control
inactive: dose: 6.25 mg/kg/injection, schedule: Q01DX009 (ip), vehicle: saline 117 % of control and 118 % of control | dose: 8.0 mg/kg/injection, schedule: Q03HX016 (ip), vehicle: saline 111 % of control | dose: 8.0 mg/kg/injection, schedule: Q03HX024 (ip), vehicle: saline 113 % of control | dose: 12.5 mg/kg/injection, schedule: Q01DX009 (ip), vehicle: saline 117 % of control and 122 % of control and 123 % of control | dose: 16.0 mg/kg/injection, schedule: Q03HX008 (ip), vehicle: saline 111 % of control | dose: 16.0 mg/kg/injection, schedule: Q03HX016 (ip), vehicle: saline 116 % of control | dose: 16.0 mg/kg/injection, schedule: Q03HX024 (ip), vehicle: saline 118 % of control | dose: 20.0 mg/kg/injection, schedule: Q01DX009 (ip), vehicle: saline 118 % of control | dose: 25.0 mg/kg/injection, schedule: Q01DX001 (ip), vehicle: carboxymethylcellulose (CMC) 112 % of control | dose: 25.0 mg/kg/injection, schedule: Q01DX009 (ip), vehicle: saline 120 % of control and 123 % of control | dose: 30.0 mg/kg/injection, schedule: Q01DX009 (ip), vehicle: saline with Tween-80 111 % of control | dose: 32.0 mg/kg/injection, schedule: Q01DX009 (ip), vehicle: saline 116 % of control | dose: 32.0 mg/kg/injection, schedule: Q01DX009 (sc), vehicle: saline 117 % of control | dose: 32.0 mg/kg/injection, schedule: Q03HX008 (ip), vehicle: saline 116 % of control | dose: 32.0 mg/kg/injection, schedule: Q03HX024 (ip), vehicle: saline 121 % of control | dose: 40.0 mg/kg/injection, schedule: Q01DX009 (ip), vehicle: saline 121 % of control | dose: 44.0 mg/kg/injection, schedule: Q01DX009 (ip), vehicle: saline with Tween-80 108 % of control | dose: 50.0 mg/kg/injection, schedule: Q01DX001 (ip), vehicle: carboxymethylcellulose (CMC) 106 % of control | dose: 54.0 mg/kg/injection, schedule: Q04DX003 (ip), vehicle: saline with Tween-80 110 % of control | dose: 64.0 mg/kg/injection, schedule: Q01DX001 (oral), vehicle: saline 107 % of control | dose: 64.0 mg/kg/injection, schedule: Q01DX009 (ip), vehicle: saline 123 % of control | dose: 64.0 mg/kg/injection, schedule: Q01DX009 (oral), vehicle: saline 92 % of control | dose: 64.0 mg/kg/injection, schedule: Q01DX009 (sc), vehicle: saline 118 % of control | dose: 64.0 mg/kg/injection, schedule: Q03HX008 (ip), vehicle: saline 116 % of control | dose: 64.0 mg/kg/injection, schedule: Q03HX024 (ip), vehicle: saline 122 % of control | dose: 64.0 mg/kg/injection, schedule: Q04DX003 (ip), vehicle: saline 117 % of control | dose: 64.0 mg/kg/injection, schedule: Q08DX002 (ip), vehicle: saline 117 % of control | dose: 67.0 mg/kg/injection, schedule: Q01DX009 (ip), vehicle: saline with Tween-80 104 % of control | dose: 100.0 mg/kg/injection, schedule: Q01DX001 (ip), vehicle: carboxymethylcellulose (CMC) 110 % of control | dose: 100.0 mg/kg/injection, schedule: Q04DX003 (ip), vehicle: saline with Tween-80 123 % of control | dose: 128.0 mg/kg/injection, schedule: Q01DX001 (ip), vehicle: saline 118 % of control | dose: 128.0 mg/kg/injection, schedule: Q01DX001 (oral), vehicle: saline 103 % of control | dose: 128.0 mg/kg/injection, schedule: Q01DX001 (sc), vehicle: saline 104 % of control | dose: 128.0 mg/kg/injection, schedule: Q01DX009 (ip), vehicle: saline 108 % of control | dose: 128.0 mg/kg/injection, schedule: Q01DX009 (sc), vehicle: saline 102 % of control | dose: 128.0 mg/kg/injection, schedule: Q03HX008 (ip), vehicle: saline 119 % of control | dose: 128.0 mg/kg/injection, schedule: Q03HX016 (ip), vehicle: saline 122 % of control | dose: 128.0 mg/kg/injection, schedule: Q04DX003 (ip), vehicle: saline 114 % of control | dose: 128.0 mg/kg/injection, schedule: Q08DX002 (ip), vehicle: saline 112 % of control | dose: 150.0 mg/kg/injection, schedule: Q01DX009 (ip), vehicle: saline with Tween-80 92 % of control | dose: 160.0 mg/kg/injection, schedule: Q01DX009 (ip), vehicle: saline 116 % of control
